From patent US10632165B2, “Beneficial effect of Bidens pilosa on fat decrease and muscle increase” (Academia Sinica, priority 2016, dated 2020)

What was measured:
[1] = system: 3T3-L1 adipocytes; assay: MTT assay of cell viability of adipocytes; assay type: cell-based, mouse; conditions: 24 hr
Experimental: (§1) The MTT assay of 3T3-L1 adipocytes grown in the medium containing vehicle or cytopiloyne at the indicated concentration for 24 hr is shown (A). 3T3-L1 pre-adipocytes were initiated for differentiation with DMSO (vehicle) and a mixture of Dex, IBMX and insulin for 2 days (B). The differentiating cells were then incubated with vehicle (inducer), rosiglitazone (RSG) or different doses of cytopiloyne until complete differentiation occurred. Lipid droplets from all the cells were visualized by Oil-Red-O staining and examined by light microscopy (left panel). Scale bars=10 μm. Oil Red O inside the cells was extracted and quantified at 520 nm (right panel). Expression of PPAR-γ and C/EBPα in 3T3-L1 cells treated with inducer in the presence of rosiglitazone (RSG) or cytopiloyne was analyzed by Western blot (C). The relative expression level (REL) of aP2 and adiponectin in 3T3-L1 cells was measured using real-time PCR (D). Effect of cytopiloyne on differentiation of human SGBS cells. The cells were incubated with DMEM/F12 medium (vehicle) or differentiation medium for 3 days (E). The cells were then incubated with vehicle (inducer) and cytopiloyne (25 μM) until a complete differentiation. […]
MTT assay was used to determine cell viability of adipocytes. […] The plate was measured at 570 nm (signal) and 650 nm (reference) using a microplate reader (UVM340, Biochrom, UK).

[2] = system: PPARγ; assay: PPARγ expression in 3T3-L1 cells (Western blot); assay type: cell-based, mouse; conditions: inducer plus test substance
Experimental: 3T3-L1 pre-adipocytes were initiated for differentiation with DMSO (vehicle) and a mixture of Dex, IBMX and insulin for 2 days (B). The differentiating cells were then incubated with vehicle (inducer), rosiglitazone (RSG) or different doses of cytopiloyne until complete differentiation occurred. […] Expression of PPAR-γ and C/EBPα in 3T3-L1 cells treated with inducer in the presence of rosiglitazone (RSG) or cytopiloyne was analyzed by Western blot (C).
3T3-L1 cells were maintained in DMEM medium containing 10% FBS, 4 mM glutamine, 4.5 g/L glucose, 1 mM sodium pyruvate, and 1.5 g/L sodium bicarbonate. The differentiation of 3T3-L1 cells into adipocytes was initiated by the addition of 10 μM Dex, 0.5 mM IBMX and 10 μg/mL insulin to the confluent cells for 2 days. The cells were then differentiated in medium containing 10 μg/mL insulin together with DMSO, rosiglitazone and cytopiloyne for an additional 8 to 10 days. The medium was changed every 2 days until the differentiation was complete.

[3] = system: 3T3-L1 pre-adipocytes; assay: Differentiation of 3T3-L1 pre-adipocytes, Oil Red O staining and lipid quantification; assay type: cell-based, mouse; conditions: 3T3-L1, inducer (Dex, IBMX and insulin) plus test substance
Experimental: as §1, with “(E).” for “(E). The cells were then incubated with vehicle (inducer) and cytopiloyne (25 μM) until a complete differentiation.”
(§2) The differentiated adipocytes were washed with phosphate-buffered saline (PBS) and fixed with 4% formaldehyde for 15 min. […] For lipid quantification, isopropanol was used to extract the intracellular oil red O, followed by measurement at 520 nm using a microplate reader.

[4] = system: C/EBPα; assay: C/EBPα expression in 3T3-L1 cells (Western blot); assay type: cell-based, mouse; conditions: inducer plus test substance
Experimental: as §1
Western Blot. […] After developing with ECL substrate (GE Healthcare, UK), the membranes were detected using FLUORCHEM™ HD2 system (Bio-Techne, Minneapolis, Minn., USA).

[5] = system: human SGBS cells; assay: Differentiation of human SGBS cells, Oil Red O staining; assay type: cell-based; conditions: 25 μM
Experimental: as §1, with “(E).” for “(E). The cells were then incubated with vehicle (inducer) and cytopiloyne (25 μM) until a complete differentiation.”
as §2

[6] = system: aP2; assay: aP2 expression in 3T3-L1 cells (real-time PCR); assay type: cell-based, mouse
Experimental: as §1, with “differentiation. The cells were stained with Oil Red O and photographed. Scale bar=20 μm.” for “differentiation.”

[7] = system: adiponectin; assay: Adiponectin expression in 3T3-L1 cells (real-time PCR); assay type: cell-based, mouse
Experimental: as §1, with “differentiation. The cells were stained with Oil Red O and photographed. Scale bar=20 μm.” for “differentiation.”

CC#CC#CC#CC#CCCC(CO)O[C@@H]1O[C@H](CO)[C@@H](O)[C@H](O)[C@H]1O (stereo partly drawn) [cytopiloyne, 2-β-D-glucopyranosyloxy-1-hydroxytrideca-5,7,9,11-tetrayne]
cytotoxicity (MTT) ([1]; 3T3-L1, 25 μM or less): did not show cytotoxicity | cytotoxicity (MTT) ([1]; 3T3-L1, 50 μM): slight cytotoxicity | PPARγ expression up-regulated by the inducer [2]: abolished the up-regulation | production of lipid droplets in adipocytes [3]: dose-dependently inhibited this production | C/EBPα expression up-regulated by the inducer [4]: abolished the up-regulation | production of lipid droplets [5]: inhibitory effect of cytopiloyne on the production of lipid droplets was confirmed | expression level of aP2 up-regulated by the inducer [6]: abolished this up-regulation | expression level of adiponectin up-regulated by the inducer [7]: abolished this up-regulation
